{"source": "patent US11220661B2", "about": "“Compositions comprising taurate surfactants and methods of using the compositions” (Colgate-Palmolive Company, priority 2016, dated 2022)", "key": {"[1]": {"system": "proinflammatory cytokines IL-1a, IL-6, IL-8, TNF-a in 3D EpiDerm skin models", "assay": "Multiple inflammation biomarker assay on SDS-irritated 3D EpiDerm skin models", "conditions": "for cytokine levels (IL-1a, IL-6, IL-8, TNF-a; FIGS. 2A-2D, % control): 0.02 wt. % SDS-irritated skin samples, 30 ul of 1% test solution in PBS topically for 1 hour, then 24 hours incubation, Milliplex assay", "protocol": "To document the effect on skin inflammation, in vitro experiments using 3D EpiDerm skin models (SIT 200 skin irritation model, MatTek Corporation, Ashland, Mass.) were conducted. An irritant chemical, sodium dodecyl sulfate (0.02 wt. % SDS), was used to induce skin irritation in in vitro skin samples. After the inducement of skin irritation, the in vitro skin samples were each treated topically with one of two 30 ul test solutions (either a 1% Taurine in PBS solution or a 1% Sodium methyl oleoyl taurate in PBS solution) for 1 hour in a tissue culture incubator (37 degree C., 5% CO2). Following the incubation, the skin samples were washed with PBS and placed in a culture medium and further incubated for 24 hours. Tissue was harvested and homogenized for a multiple inflammation biomarker assay, testing levels of IL-1, IL-6, IL-8 and TNF-a. Biomarkers were analyzed by a Milliplex assay kit. (Millipore, Billerica, Mass.).\nThe irritant chemical, sodium dodecyl sulfate (SDS), that was used is commonly used as a […] control in irritation/inflammation assays on MatTek tissue. The multiple biomarker assay of Example 2 measured the levels of proinflammatory cytokines, including IL-1a, IL-6, IL-8, TNF-a, in one assay to evaluate the level of skin irritation/inflammation. The more cytokines released, the greater the irritation and/or inflammation potential."}, "[2]": {"system": "IL-1a in 3D EpiDerm skin models", "assay": "Irritation biomarker (IL-1a) assay on 3D EpiDerm skin models", "assay_type": "cell-based, human", "conditions": "6.8% in combar base, p-value of 0.03 vs combar base", "text": "Two separate combar samples were formulated, one with taurine and one with sodium methyl oleoyl taurate. Both the taurine and sodium methyl oleoyl taurate were formulated at the same molar concentration in the combar samples. The weight concentrations of taurine and methyl oleoyl taurate in their respective combar bases was as follows:\nTaurine combar sample—2% Taurine (obtained from Qianjiang Yongan Pharmaceutical, Wuhan, China), 98% Combar;\nTaurate combar sample—6.8% Sodium Methyl Oleoyl Taurate (obtained from Rhodia Solvay Group), 93.2% Combar.\nSamples for testing were made by mixing the taurine combar and taurate combar in PBS (1% weight by volume combar base of each of the taurine combar and sodium methyl oleoyl taurate combar in PBS).\nSeparate In vitro skin samples were treated topically with 30 ul each of the taurine combar and taurate combar test samples for 1 hour in a tissue culture incubator. […] Tissue was harvested and homogenized for a IL-1a assay. IL-1a levels were analyzed using a Human IL-1 alpha/IL-1F1 Quantikine ELISA kit available from R&D Systems, Minneapolis, Minn. Among cytokines released along the inflammation pathway, IL-1a is recognized as a prominent irritation biomarker. The more IL-1a that is released, the greater is the irritation potential.\nThus, the combar base was used as a negative control on the MatTek tissue."}, "HaCaT cells": {"system": "HaCaT cells", "assay": "Cell migration assay (scratch gap closure)", "assay_type": "cell-based, human", "conditions": "0.01% by weight in DMEM culture medium, 24 hours, vs control medium", "protocol": "Three different culture medium samples were prepared. A control medium that included a Dulbecco's modified Eagle's medium (DMEM) comprising actives of 10% Fetal Bovine Serum and 1% Penicillin Streptomycin; a taurine medium that was the same as the control medium but included 0.01% by weight Taurine; and a taurate medium that was the same as the control medium but included 0.01% by weight Sodium Methyl Oleoyl Taurate. To determine the effect of both Taurine (0.01%) and Sodium Methyl Oleoyl Taurate (0.01%) on the cellular repair function, in vitro experiments were conducted using HaCaT cells. HaCaT cells are a spontaneously transformed aneuploid immortal keratinocyte cell line from adult human skin. Three sample wells of the HaCaT cells were each grown until 100% confluent. After that, each well was scratched with a 1000 microliter (ul) tip (to create the gap) and washed twice with 1 milliliter (ml) of phosphate buffered saline (“PBS”) to eliminate dead floating cells. Following that, each one of the three sample wells were treated with 1 ml of one of the three culture medium samples: one with the control medium, one with the taurine (0.01%) medium, and one with the sodium methyl oleoyl taurate (0.01%) medium. Then, initial measurements of gap distance were taken using a microscope (OLYMPUS IX71). […]"}}}
{"smiles": "CCCCCCCCCCCCOS(=O)(=O)[O-].[Na+]", "note": "[SDS, Sodium Dodecyl Sulfate]", "values": [{"measurement": "expression of cytokines IL-1a, IL-6, IL-8 and TNF-a by the irritant", "setting": "[1]; 0.02 wt. % SDS on 3D EpiDerm", "value": "induced"}]}
{"smiles": "CCCCCCCC/C=C\\CCCCCCCC(=O)N(C)CCS(=O)(=O)[O-].[Na+]", "note": "[sodium methyl oleoyl taurate]", "values": [{"measurement": "cytokine levels (IL-1a, IL-6, IL-8, TNF-a; FIGS. 2A-2D, % control)", "setting": "[1]", "value": "suppressed"}, {"measurement": "irritation potential of the combar base", "setting": "[2]", "value": "significantly reduced"}, {"measurement": "cell migration rate (% reduction in gap distance, FIG. 1)", "setting": "HaCaT cells", "value": "comparable enhancement in cell migration rate"}]}
{"smiles": "NCCS(=O)(=O)O", "note": "[taurine, 2-aminoethylsulphonic acid]", "values": [{"measurement": "cytokine levels (IL-1a, IL-6, IL-8, TNF-a; FIGS. 2A-2D, % control)", "setting": "[1]", "value": "suppressed"}, {"measurement": "cell migration rate (% reduction in gap distance, FIG. 1)", "setting": "HaCaT cells", "value": "comparable enhancement in cell migration rate"}]}
